Here are results for 39 compounds from patent US20190030009A1, “COMPOUNDS AND COMPOSITIONS FOR THE TREATMENT OF CRYPTOSPORIDIOSIS” (Novartis AG, priority 2016, published 2019).

Series [1] is described as follows: Cytotoxicity against HepG2. In kind it is cell-based. As to conditions: human, HepG2 cells (ATCC HB-8065), 5 days exposure. The procedure: Cytotoxicity against HepG2 (ATCC# HB-8065), a human liver cancer cell line, was determined as previously described earlier (Manjunatha et al., 2015). Briefly, cells were seeded at a density of 10^5 cells per well, incubated at 37° C. for 24 h and exposed to two-fold serially-diluted compounds for 5 days. Cell viability was monitored using the Cell Proliferation Kit II (Invitrogen). The cytotoxicity values of selected compounds are reported in the fifth column [HepG2 CC50 (μM)] of Table II.

The next series deals with Cryptosporidium parvum. The experiment in a line: Cytopathic effect (CPE) based assay, C. parvum infected HCT-8 cells. As to conditions: HCT-8 host cell viability (CellTiter-Glo), 48 hours treatment, read-out: Cp CPE EC50. The procedure: Human ileocecal colorectal adenocarcinoma cells (HCT-8 [HRT-18] ATCC, CCL-34) were maintained in T-175 flasks (Corning, 431080) in complete growth medium (RPMI-1640 medium (Gibco, 11875) supplemented with 10% heat-inactivated horse serum (Gibco, 26050), 1×MEM non-essential amino acids (Gibco, 11140), 10 mM HEPES (Gibco, 15630), 100 units/mL penicillin, and 100 units/mL streptomycin) at 37° C. and 5% CO2 in a humidified incubator. Cultures were passaged twice weekly using 10 mL of 1×Phosphate-Buffered Saline (PBS) without Ca^2+ and Mg^2+ (Gibco, 20012) for washing and 3-5 mL per T-175 flask of TrypLE Express Enzyme (Gibco, 12604) for dissociation of adherent cells.
Cryptosporidium parvum oocysts purchased from the Sterling Laboratory, University of Arizona (Iowa isolate) were purified from infected calf feces using discontinuous sucrose and cesium chloride centrifugation gradients and stored in PBS solution containing 0.01% Tween 20, 100 units/mL penicillin and 100 units/mL gentamicin.
Excystation and infection protocols were developed following established methods with some modifications (Gut & Nelson, 1999, Upton et aL, 1995, Bessoff et aL, 2013). Briefly, oocysts were primed in 1 mL of 10 mM hydrochloric acid in 1× Hank's Balanced Salt Solution (HBSS) (Gibco, 14025) for 10 minutes with agitation at 1000 rpm, 37° C. on an Eppendorf thermomixer, then washed twice with 1 mL of room temperature non-acidic 1× HBSS by centrifugation at 13,000 rpm for 3 minutes at 25° C. Primed oocysts were further excysted at a concentration of 1×10^6 oocysts/μL in parasite infection medium consisting of a pre-warmed and pre-gassed 1:1 formulation of Leibovitz's L-15 medium (Gibco, 11415) and UltraCULTURE medium (Lonza, 12-725F) supplemented with 2 mM sodium taurocholate (Sigma, 86339-1), 10% heat-inactivated horse serum, and 200 μM L-ascorbic acid (Sigma, 95210) at 25° C. for 10 minutes. HCT-8 monolayer cells were infected with excysted cryptosporidium at a specified multiplicity of infection (MOI). All dilutions for subsequent assays were performed in parasite infection medium without sodium taurocholate. Pre-excysted oocysts were enumerated microscopically using a C-Chip disposable hemocytometer (NanoEnTek, DHC-N01).
Compound powders were dissolved in neat DMSO (Fisher, D4121) to 10 mM and stored at 4° C. prior to dilution into source plates. Dilutions were carried out using a Microlab STAR liquid handler (Hamilton) to obtain compound source plates containing the ten-point or eight-point three fold dilutions starting from 10 mM in duplicates. Source plates were stored at 4° C. prior to spotting into assay plates. Before administration, all compound source plates were equilibrated to room temperature. A specified volume of compounds from source plate were spotted to assay plate using an Echo Acoustic liquid handler (LABCYTE, 550) so that the final DMSO concentration was less than 0.5%. Each assay plate a specified number of DMSO-treated negative control wells and a well-studied potent active compound at 100 nM as positive control. As a quality control, all positive and negative-control wells were used to calculate a Z′-value and signal to noise ratio (S:N) for each plate.
Cryptosporidium spp are obligate-intracellular parasites that infect intestinal epithelial cells and the host cell is killed upon parasite egress. […] The loss of epithelial cells is due to both rapid parasite invasion/multiplication/egress and also pro-inflammatory immune response (Adams et al., 1994, Griffiths et al., 1994). We have observed a consistent cytopathic effect (CPE) in HCT-8 cells with C. spp infection the loss of viability of the host cells using CellTiter-Glo reagent.
Confluent HCT-8 cells in T-175 flasks were directly infected with excysted oocysts at an MOI (host to parasite) of 1:2 for C. parvum and 1:4 for C. hominis. The number of host-cells is determined using a NucleoCounter (Chemometec, NC-100) in a control flask. […]

One may read the CC50 as the concentration giving 50% cytotoxicity. As a reminder, the EC50 is the concentration needed to bring the measured effect to its halfway point.

In series [1], `CN(C(=O)c1ccn2ncc(-c3ccc(C(F)(F)F)cc3)c2c1)c1ccc(C#N)cn1` [Example 13] came in with a 50% cytotoxic concentration (CC50) at 5 days greater than 50 µM. Moreover, in the series on Cryptosporidium parvum, the 50% effective concentration (EC50) amounted to 1.54 µM.
`CN(C(=O)c1ccn2ncc(-c3ccc4c(cnn4C)c3)c2c1)c1ccc(C#N)cc1` [Example 17] yielded a CC50 at 5 days in series [1] of 2.51 µM. The EC50 in the series on Cryptosporidium parvum turned out to be 0.058 µM.
The corresponding values for `CN(C(=O)c1ccn2ncc(-c3ccc(C(N)=O)cc3)c2c1)c1ccc(F)cc1` [Example 20] are 5.42 µM and 0.105 µM.
In turn, `CN(C(=O)c1ccc(C#N)cc1)c1ccn2ncc(-c3ccc(C(F)(F)F)cc3)c2c1` [Example 28] registered a CC50 at 5 days in series [1] of 9.9 µM. Further, in the series with Cryptosporidium parvum, the EC50 worked out at 2.82 µM.
The corresponding values for `CN(C(=O)c1ccn2ncc(-c3ccc(N)nc3)c2c1)c1ccc(C#N)cc1` [Example 41] are 24.1 µM and 0.097 µM.
The corresponding values for `CNC(=O)c1ccc(-c2cnn3ccc(C(=O)N(C)c4ccc(F)cc4)cc23)cc1` [Example 64] are 4.84 µM and 0.143 µM.
The corresponding values for `Cc1ccc(N(C)C(C)c2ccn3ncc(-c4ccc(C(N)=O)cc4)c3c2)nc1` (stereo not drawn) [Example 65] are 2.28 µM and 5.12 µM.
`NC(=O)c1ccc(-c2cnn3ccc(C(=O)N4CCOc5cc(F)ccc54)cc23)cc1` [Example 71] displayed a CC50 at 5 days in series [1] of 1.82 µM. In the series on Cryptosporidium parvum, the EC50 was 0.571 µM.
The corresponding values for `CC1COc2cc(F)ccc2N1C(=O)c1ccn2ncc(-c3ccc(C(N)=O)cc3)c2c1` (stereo not drawn) [Example 72] are 5.42 µM and 1.4 µM.
The corresponding values for `CNC(=O)c1ccc(-c2cnn3ccc(C(=O)N(C)c4ccc(C#N)cn4)cc23)cc1` [Example 75] are 19.7 µM and 0.066 µM.
The corresponding values for `CN(C(=O)c1ccn2ncc(-c3ccc(C(N)=O)cc3)c2c1)C1CCC(C#N)CC1` (stereo not drawn) [Example 82] are greater than 50 µM and greater than 20 µM.
In the case of `CN(C(=O)c1ccn2ncc(-c3cnc(N)nc3)c2c1)c1ccc(C#N)cc1` [Example 83], the CC50 at 5 days in series [1] is greater than 50 µM. Moreover, the half-maximal effective concentration (EC50) in the series with Cryptosporidium parvum amounted to 0.487 µM.
`CN(C(=O)c1ccn2ncc(-c3cnc(N)c(C#N)c3)c2c1)c1ccc(C#N)cn1` [Example 85] gave a CC50 at 5 days in series [1] of 30.4 µM. Further, in the series with Cryptosporidium parvum, the EC50 amounted to 0.639 µM.
As to `CN(C)C(=O)c1cc(-c2cnn3ccc(C(=O)N(C)c4ccc(C#N)cn4)cc23)cnc1N` [Example 87], the CC50 at 5 days in series [1] was greater than 50 µM. The EC50 with Cryptosporidium parvum was 0.415 µM.
As for `CNC(=O)c1ccc(-c2cnn3ccc(C(=O)N(c4ccc(C#N)cn4)C4CC4)cc23)cc1` [Example 93], in series [1], half-maximal cytotoxicity (CC50 at 5 days) was put at 28.1 µM. Besides, the EC50 in the series on Cryptosporidium parvum was 0.152 µM.
Compound `CCN(C(=O)c1ccn2ncc(-c3ccc(C(=O)NC)cc3)c2c1)c1ccc(F)cn1` [Example 95] returned a CC50 at 5 days in series [1] of 13 µM. Further, the EC50 in the series with Cryptosporidium parvum was found to be 0.63 µM.
In series [1], `CN(C(=O)c1ccn2ncc(-c3cnc(Cl)c(N)c3)c2c1)c1ccc(C#N)cn1` [Example 98] had a CC50 at 5 days of 10.2 µM. Also, the EC50 with Cryptosporidium parvum was 2.21 µM.
In turn, `CNC(=O)c1ccc(-c2cnn3ccc(C(=O)N(C)c4ccc(Cl)cc4)cc23)cc1` [Example 99] returned a CC50 at 5 days in series [1] of 6.51 µM. The half-maximal effective concentration (EC50) in the series with Cryptosporidium parvum amounted to 0.018 µM.
The corresponding values for `CN(C(=O)c1ccn2ncc(-c3ccc(C(N)=O)cc3)c2c1)c1ccc(Cl)cc1` [Example 100] are 13.3 µM and 0.021 µM.
Compound `CN(C(=O)c1ccn2ncc(-c3ccc(C(=O)O)cc3)c2c1)c1ccc(C#N)cn1` [Example 101] yielded a CC50 at 5 days in series [1] greater than 50 µM. The EC50 with Cryptosporidium parvum was 15.2 µM.
The corresponding values for `CN(C(=O)c1ccn2ncc(-c3ccc(C(=O)NCCO)cc3)c2c1)c1ccc(C#N)cn1` [Example 102] are 38.5 µM and 0.399 µM.
The compound `CN(C(=O)c1ccn2ncc(-c3ccc(C(=O)NCCN)cc3)c2c1)c1ccc(C#N)cn1` [Example 104] displayed a CC50 at 5 days in series [1] greater than 50 µM. Moreover, the EC50 in the series with Cryptosporidium parvum was found to be 3.61 µM.
Regarding `N#Cc1ccc(N(CCO)C(=O)c2ccn3ncc(-c4ccc(C(N)=O)cc4)c3c2)cc1` [Example 105], the CC50 at 5 days in series [1] was greater than 50 µM. In addition, the 50% effective concentration (EC50) with Cryptosporidium parvum is greater than 20 µM.
`CNC(=O)c1ccc(-c2cnn3ccc(C(=O)Nc4ccc(C#N)cn4)cc23)cc1` [Example 106]: the 50% cytotoxic concentration (CC50) at 5 days in series [1] is greater than 50 µM. Further, in the series on Cryptosporidium parvum, the EC50 is greater than 20 µM.
In turn, `CN(C(=O)c1ccn2ncc(-c3cnc(Cl)c(NS(C)(=O)=O)c3)c2c1)c1ccc(C#N)cn1` [Example 107] came in with a CC50 at 5 days in series [1] of 39.7 µM.
`CN(C(=O)c1ccn2ncc(-c3ccnc(N)c3)c2c1)c1ccc(C#N)cn1` [Example 108] displayed a CC50 at 5 days in series [1] of 14.2 µM. Further, in the series on Cryptosporidium parvum, the EC50 was 4.94 µM.
The corresponding values for `CNC(=O)c1ccc(-c2cnn3ccc(C(=O)N(C)c4ccc(Cl)cc4)cc23)cn1` [Example 109] are 16.9 µM and 0.129 µM.
In series [1], `CNC(=O)c1ccc(-c2cnn3ccc(C(=O)N(CCO)c4ccc(C#N)cc4)cc23)cc1` [Example 110] displayed a half-maximal cytotoxic concentration (CC50) at 5 days of 23.8 µM. Further, the EC50 in the series with Cryptosporidium parvum was greater than 20 µM.
The corresponding values for `CNC(=O)c1ccc(-c2cnn3ccc(C(=O)N(C)c4ccc(OCCN)cn4)cc23)cc1` [Example 111] are greater than 50 µM and greater than 20 µM.
Regarding `CN(C(=O)c1ccn2ncc(-c3ccc(C(=O)NC4CCNCC4)cc3)c2c1)c1ccc(C#N)cn1` [Example 113], the CC50 at 5 days in series [1] worked out at 2.67 µM. Also, the EC50 in the series with Cryptosporidium parvum was determined as 19.4 µM.
`CNCCNC(=O)c1ccc(-c2cnn3ccc(C(=O)N(C)c4ccc(C#N)cn4)cc23)cc1` [Example 114]: it took 5.52 µM to reach half-maximal cytotoxicity in series [1] (CC50 at 5 days). Moreover, the EC50 in the series with Cryptosporidium parvum is 9.13 µM.
The corresponding values for `CN(C)CCNC(=O)c1ccc(-c2cnn3ccc(C(=O)N(C)c4ccc(C#N)cn4)cc23)cc1` [Example 115] are 2.7 µM and 3.02 µM.
The corresponding values for `CNC(=O)c1ccc(-c2cnn3ccc(C(=O)N(c4ccc(Cl)cc4)C4CC4)cc23)cc1` [Example 116] are 3.01 µM and 0.007 µM.
The compound `CNC(=O)c1ccc(-c2cnn3ccc(C(=O)N(c4ccc(C#N)cc4)C4CC4)cc23)cc1` [Example 118] had a CC50 at 5 days in series [1] of 5.9 µM. Also, in the series on Cryptosporidium parvum, the EC50 worked out at 0.026 µM.
For the compound `CNC(=O)c1ccc(-c2cnn3ccc(C(=O)N(C)c4ccc(OC)nc4)cc23)cc1` [Example 122], the CC50 at 5 days in series [1] worked out at 15.8 µM. Also, in the series with Cryptosporidium parvum, the EC50 is greater than 20 µM.
The corresponding values for `CNC(=O)c1ccc(-c2cnn3ccc(C(=O)N(c4ccc(F)cn4)C4CC4)cc23)cc1` [Example 125] are 25.5 µM and 0.709 µM.
The corresponding values for `CNC(=O)c1ccc(-c2cnn3ccc(C(=O)N(c4ccc(C(=O)O)cn4)C4CC4)cc23)cc1` [Example 128] are greater than 50 µM and greater than 20 µM.
In series [1], `CCN(C(=O)c1ccn2ncc(-c3ccc(C(=O)NC)cc3)c2c1)c1ccc(C#N)c(OCCO)n1` [Example 162] returned a CC50 at 5 days of 24.4 µM.
On the same count and under the same terms, then `CNC(=O)c1ccc(-c2cnn3ccc(S(=O)(=O)N(c4ccc(C#N)cn4)C4CC4)cc23)cc1` [Example 164], with 6.98 µM.
